# Like-named read-outs stand apart in the source and are kept apart here.
# Assays:
# CoREST complex = assay: Chemoproteomic binding profiling, K562 cell extract, SAHA/ITF2357 probe matrix (Kd app); set-up: species or system human
# NuRD complex = assay: as above; set-up: species or system human
# Sin3 complex = assay: as above; set-up: species or system human
# [1] = system: T1, MiDAC complex (HDAC1/2, DNTTIP1, CDYL, MIDEAS); assay: as above; set-up: species or system human
# T1 construct: Kd^app MIDEAS; other: protein MIDEAS; MiDAC complex; Kd^app DNTTIP1; other: protein DNTTIP1
# [2] = molecular target: T2, non-HDAC targets (e.g. BZW2, ISOC2, aldehyde dehydrogenases) (Homo sapiens, UniProt O94788); assay: as above; conditions: protein ALDH1A2; selected HDACi off-targets
# T2 construct: endogenous in cells; host or cells: K562 whole cell extract
# T2 sequence (O94788 1-518): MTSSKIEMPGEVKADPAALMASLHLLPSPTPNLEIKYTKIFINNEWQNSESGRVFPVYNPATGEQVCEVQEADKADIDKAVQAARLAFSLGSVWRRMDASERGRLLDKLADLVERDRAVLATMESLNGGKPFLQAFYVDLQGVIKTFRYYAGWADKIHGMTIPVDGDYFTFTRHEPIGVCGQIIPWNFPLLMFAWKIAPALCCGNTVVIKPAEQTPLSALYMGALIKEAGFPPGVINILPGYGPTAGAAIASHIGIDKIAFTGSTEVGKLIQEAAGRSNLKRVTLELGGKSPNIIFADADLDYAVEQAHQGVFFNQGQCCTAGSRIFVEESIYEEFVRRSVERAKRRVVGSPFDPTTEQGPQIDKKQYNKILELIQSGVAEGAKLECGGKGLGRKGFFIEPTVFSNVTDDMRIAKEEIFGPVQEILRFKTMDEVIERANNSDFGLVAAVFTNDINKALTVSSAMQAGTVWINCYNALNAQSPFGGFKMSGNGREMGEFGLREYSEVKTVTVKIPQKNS
# [3] = molecular target: T3, non-HDAC targets (e.g. BZW2, ISOC2, aldehyde dehydrogenases) (Homo sapiens, UniProt P16152); assay: as above; conditions: protein CBR1; selected HDACi off-targets
# T3 construct: Kd^app CBR1; other: protein CBR1; selected HDACi off-targets
# T3 sequence (P16152 1-277): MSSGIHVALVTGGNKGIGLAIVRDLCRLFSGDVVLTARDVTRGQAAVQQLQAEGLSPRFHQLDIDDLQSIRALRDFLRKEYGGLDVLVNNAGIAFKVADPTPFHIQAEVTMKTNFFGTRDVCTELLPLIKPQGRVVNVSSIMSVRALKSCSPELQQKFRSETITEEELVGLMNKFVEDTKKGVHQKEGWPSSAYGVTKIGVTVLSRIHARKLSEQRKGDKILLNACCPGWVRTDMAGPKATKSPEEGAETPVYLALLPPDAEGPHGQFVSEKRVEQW
# [4] = molecular target: T4, non-HDAC targets (e.g. BZW2, ISOC2, aldehyde dehydrogenases) (Homo sapiens, UniProt Q08209); assay: as above; conditions: protein PPP3CA; selected HDACi off-targets
# T4 construct: Kd^app PPP3CA; other: protein PPP3CA; selected HDACi off-targets
# [5] = molecular target: T5, non-HDAC targets (e.g. BZW2, ISOC2, aldehyde dehydrogenases) (Homo sapiens, UniProt Q96AB3); assay: as above; conditions: protein ISOC2; selected HDACi off-targets
# T5 construct: endogenous in cells; host or cells: K562 whole cell extract
# T5 sequence (Q96AB3 1-205): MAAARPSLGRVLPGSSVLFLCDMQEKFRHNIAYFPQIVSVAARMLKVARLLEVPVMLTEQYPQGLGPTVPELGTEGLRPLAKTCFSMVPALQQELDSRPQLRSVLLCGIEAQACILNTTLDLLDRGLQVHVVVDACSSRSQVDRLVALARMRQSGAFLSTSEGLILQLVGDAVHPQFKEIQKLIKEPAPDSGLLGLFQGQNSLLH
# [6] = molecular target: T6, non-HDAC targets (e.g. BZW2, ISOC2, aldehyde dehydrogenases) (Homo sapiens, UniProt Q9Y6E2); assay: as above; conditions: protein BZW2; selected HDACi off-targets
# T6 construct: endogenous in cells; host or cells: K562 whole cell extract
# T6 sequence (Q9Y6E2 1-419): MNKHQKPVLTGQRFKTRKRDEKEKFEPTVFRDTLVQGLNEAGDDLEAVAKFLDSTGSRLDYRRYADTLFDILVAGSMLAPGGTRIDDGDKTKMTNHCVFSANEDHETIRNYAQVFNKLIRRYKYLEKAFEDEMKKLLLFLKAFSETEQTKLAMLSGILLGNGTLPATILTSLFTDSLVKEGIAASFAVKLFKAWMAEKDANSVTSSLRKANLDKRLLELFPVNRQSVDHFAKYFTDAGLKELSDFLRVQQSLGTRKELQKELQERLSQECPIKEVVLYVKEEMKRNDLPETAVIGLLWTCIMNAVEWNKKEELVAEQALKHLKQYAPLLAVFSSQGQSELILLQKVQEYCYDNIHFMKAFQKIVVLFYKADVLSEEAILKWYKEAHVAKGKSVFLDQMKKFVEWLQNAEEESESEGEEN
# MIER1 = assay: Chemoproteomic binding profiling, K562 cell extract, SAHA/ITF2357 probe matrix (Kd app), ELSA (ELM-SANT) domain protein; set-up: species or system human; conditions: ELSA (ELM-SANT) domain proteins
# MIER2 = assay: as above; set-up: species or system human; conditions: ELSA (ELM-SANT) domain proteins
# MIER3 = assay: as above; set-up: species or system human; conditions: ELSA (ELM-SANT) domain proteins
# RERE = assay: as above; set-up: species or system human; conditions: protein RERE; ELSA (ELM-SANT) domain proteins
# EHMT2 = assay: Chemoproteomic binding profiling, K562 cell extract, SAHA/ITF2357 probe matrix (Kd app), ELSA (ELM-SANT) domain proteins group; set-up: species or system human; conditions: protein EHMT2
# HDAC10 = molecular target: T7, HDAC10 (Homo sapiens, UniProt Q969S8); assay: Chemoproteomic binding profiling, K562 cell extract, SAHA/ITF2357 probe matrix (Kd app); conditions: protein HDAC10; class II HDAC; read-out: Kd^app HDAC10
# T7 construct: used to probe endogenous HDACs in K562 whole cell extracts; endogenous in cells
# T7 sequence (Q969S8 1-669): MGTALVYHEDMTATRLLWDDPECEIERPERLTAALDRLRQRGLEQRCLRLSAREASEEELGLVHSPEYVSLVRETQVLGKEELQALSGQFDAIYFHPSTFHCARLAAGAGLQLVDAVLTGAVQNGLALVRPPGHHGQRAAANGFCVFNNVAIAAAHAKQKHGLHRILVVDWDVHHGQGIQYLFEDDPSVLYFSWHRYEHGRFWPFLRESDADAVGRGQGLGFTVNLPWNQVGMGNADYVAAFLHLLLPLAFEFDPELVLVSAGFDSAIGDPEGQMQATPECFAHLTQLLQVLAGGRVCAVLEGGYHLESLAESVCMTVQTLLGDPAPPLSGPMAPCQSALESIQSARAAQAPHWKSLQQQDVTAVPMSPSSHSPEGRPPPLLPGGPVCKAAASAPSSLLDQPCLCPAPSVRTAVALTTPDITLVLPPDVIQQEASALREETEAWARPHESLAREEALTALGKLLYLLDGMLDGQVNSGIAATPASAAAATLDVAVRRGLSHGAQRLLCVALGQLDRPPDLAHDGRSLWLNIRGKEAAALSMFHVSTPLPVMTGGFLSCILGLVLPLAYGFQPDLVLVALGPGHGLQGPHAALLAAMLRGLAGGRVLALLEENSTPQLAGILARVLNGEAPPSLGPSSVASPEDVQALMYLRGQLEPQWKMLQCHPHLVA
# acetylated tubulin = assay: Cell-based tubulin acetylation assay (immunofluorescence, western blotting); set-up: species or system human; conditions: K562 and HeLa cells; immunofluorescence and western blotting
# [7] = system: acetylated histones H3 and H4; assay: Cell-based histone acetylation assay (immunofluorescence, western blotting); set-up: species or system human; conditions: K562 and HeLa cells
# [8] = protein GSE1, CoREST complex, read-out: Kd^app GSE1
# [9] = protein HMG20A, CoREST complex, read-out: Kd^app HMG20A
# [10] = protein HMG20B, CoREST complex, read-out: Kd^app HMG20B
# [11] = protein PHF21A, CoREST complex, read-out: Kd^app PHF21A
# [12] = protein RCOR1, CoREST complex, read-out: Kd^app RCOR1
# [13] = protein RCOR2, CoREST complex, read-out: Kd^app RCOR2
# [14] = protein RCOR3, CoREST complex, read-out: Kd^app RCOR3
# [15] = protein ZMYM2, CoREST complex, read-out: Kd^app ZMYM2
# [16] = protein ZMYM3, CoREST complex, read-out: Kd^app ZMYM3
# [17] = protein CHD4, NuRD complex, read-out: Kd^app CHD4
# [18] = protein GATAD2A, NuRD complex, read-out: Kd^app GATAD2A
# [19] = protein GATAD2B, NuRD complex, read-out: Kd^app GATAD2B
# [20] = protein MBD2, NuRD complex, read-out: Kd^app MBD2
# [21] = protein MBD3, NuRD complex, read-out: Kd^app MBD3
# [22] = protein MTA1, NuRD complex, read-out: Kd^app MTA1
# [23] = protein MTA2, NuRD complex, read-out: Kd^app MTA2
# [24] = protein MTA3, NuRD complex, read-out: Kd^app MTA3
SMILES,Kd (CoREST complex; [8]),Kd (CoREST complex; [9]),Kd (CoREST complex; [10]),Kd (CoREST complex; [11]),Kd (CoREST complex; [12]),Kd (CoREST complex; [14]),Kd (CoREST complex; [15]),Kd (NuRD complex; [18]),Kd (NuRD complex; [19]),Kd (NuRD complex; [21]),Kd (NuRD complex; [22]),Kd (NuRD complex; [23]),Kd [2],Kd [3],Kd [4],Kd [5],Kd [6],Kd (MIER1),Kd (MIER3),Kd (RERE),other results
Cn1cc(C(=O)Cc2ccccc2)cc1C=CC(=O)NO [MC-1293],> 10 µM,> 10 µM,> 10 µM,> 10 µM,> 10 µM,> 10 µM,> 10 µM,> 10 µM,> 10 µM,> 10 µM,> 10 µM,> 10 µM,> 10 µM,19 µM,40 µM,5 µM,4 µM,> 10 µM,209 µM,> 10 µM,"Kd (CoREST complex; [13]): > 10 µM; Kd (CoREST complex; [16]): > 10 µM; Kd (NuRD complex; [17]): > 10 µM; Kd (NuRD complex; [20]): > 10 µM; Kd (NuRD complex; [24]): > 10 µM; Kd (Sin3 complex; protein SAP30, read-out: Kd^app SAP30): 164 µM; Kd (Sin3 complex; protein SIN3A, read-out: Kd^app SIN3A): > 10 µM; Kd (Sin3 complex; protein SIN3B, read-out: Kd^app SIN3B): > 10 µM; Kd ([1]; protein DNTTIP1, read-out: Kd^app DNTTIP1): > 10 µM; Kd ([1]; protein MIDEAS, read-out: Kd^app MIDEAS): > 10 µM; Kd (MIER2): > 10 µM; Kd (EHMT2): > 10 µM"
Nc1ccccc1NC(=O)c1ccc(CNc2nccc(-c3cccnc3)n2)cc1 [Mocetinostat],–,–,–,–,–,–,–,–,–,–,–,–,230 µM,109 µM,> 271 µM,> 271 µM,> 271 µM,73 µM,34 µM,> 271 µM,Kd (HDAC10): > 271 µM; Kd (CoREST complex; read-out: Kd^app GSE1): 50 µM; Kd (CoREST complex; read-out: Kd^app HMG20A): 53 µM; Kd (CoREST complex; read-out: Kd^app HMG20B): 62 µM; Kd (CoREST complex; read-out: Kd^app PHF21A): 189 µM; Kd (CoREST complex; read-out: Kd^app RCOR1): 48 µM; Kd (CoREST complex; read-out: Kd^app RCOR2): 103 µM; Kd (CoREST complex; read-out: Kd^app RCOR3): 60 µM; Kd (CoREST complex; read-out: Kd^app ZMYM2): 124 µM; Kd (CoREST complex; read-out: Kd^app ZMYM3): 255 µM; Kd (NuRD complex; read-out: Kd^app CHD4): 170 µM; Kd (NuRD complex; read-out: Kd^app GATAD2A): 183 µM; Kd (NuRD complex; read-out: Kd^app GATAD2B): 106 µM; Kd (NuRD complex; read-out: Kd^app MBD2): 217 µM; Kd (NuRD complex; read-out: Kd^app MBD3): 119 µM; Kd (NuRD complex; read-out: Kd^app MTA1): 136 µM; Kd (NuRD complex; read-out: Kd^app MTA3): 87 µM; Kd (MIER2): 99 µM; Kd (EHMT2): > 271 µM
CN(C)Cc1c(C(=O)NCCOc2ccc(C(=O)NO)cc2)oc2ccccc12 [PCI-24781],0.02 µM,0.02 µM,0.03 µM,0.05 µM,0.02 µM,0.02 µM,0.02 µM,0.06 µM,0.07 µM,0.04 µM,0.05 µM,0.06 µM,> 10 µM,> 10 µM,> 10 µM,> 10 µM,> 10 µM,0.06 µM,0.02 µM,0.21 µM,Kd (CoREST complex; [13]): 0.02 µM; Kd (CoREST complex; [16]): 0.04 µM; Kd (NuRD complex; [17]): 0.16 µM; Kd (NuRD complex; [20]): 0.17 µM; Kd (NuRD complex; [24]): 0.05 µM; tubulin acetylation (in words) (acetylated tubulin): increased steady state acetylation of tubulin and histones; histone acetylation (in words) [7]: increased steady state acetylation of tubulin and histones
O=C(/C=C/c1ccc(CN(CCO)CCc2c[nH]c3ccccc23)cc1)NO [dacinostat],0.01 µM,0.01 µM,0.01 µM,0.02 µM,0.01 µM,0.01 µM,0.01 µM,0.02 µM,0.02 µM,0.02 µM,0.02 µM,0.02 µM,> 10 µM,0.88 µM,1.51 µM,> 10 µM,1.71 µM,0.02 µM,0.01 µM,> 10 µM,Kd (NuRD complex; [24]): 0.02 µM
Cc1[nH]c2ccccc2c1CCNCc1ccc(/C=C/C(=O)NO)cc1 [panobinostat],–,–,–,–,–,–,–,–,–,–,–,–,> 10 µM,8.23 µM,12.1 µM,> 10 µM,> 10 µM,–,–,–,–
O=C(CCCCCN1C(=O)c2cccc3cccc(c23)C1=O)NO [scriptaid],–,–,–,–,–,–,–,–,–,–,–,–,5.38 µM,> 10 µM,> 10 µM,0.35 µM,4.84 µM,–,0.32 µM,0.79 µM,Kd (MIER2): 0.81 µM; Kd (EHMT2): 1.3 µM
